{
  "source": "patent US20240082211A1",
  "about": "“SOLUBLE EPOXIDE HYDROLASE AS A TARGET FOR OCULAR DISEASES” (Indiana University Research and Technology Corporation, priority 2017, published 2024)",
  "key": {"sEH": {"tested_on": "sEH", "test": "Lipid profiling of retina/choroid in L-CNV mice (19,20-EDP/DHDP ratio as sEH activity in vivo)", "parameters": "species or system mouse", "conditions": "10 μM intravitreal, 3 days post-laser, vs vehicle treated controls", "protocol": "The L-CNV mouse model and injections were performed as previously described. […] Compounds where indicated were injected a single time immediately post-laser treatment, delivered intravitreally using a 33-gauge needle, in a 0.5 μL volume. […] Vehicle alone (PBS+0.5% (v/v) DMSO) was used as negative control. […] Eyes were numbed with tetracaine solution before the injection, and triple antibiotic ointment was used immediately after the injection to prevent infection. Lipid Profiling\nMice were sacrificed 3 days post-laser-treatment, eyes were enucleated and retina/choroid layers were immediately separated and stored at −80° C."}, "[1]": {"tested_on": "choroidal neovascularization", "conditions": "cited from earlier work"}, "[2]": {"target": "T1, soluble epoxide hydrolase (sEH) (Homo sapiens, UniProt P34913)", "T1 sequence (P34913 1-555)": "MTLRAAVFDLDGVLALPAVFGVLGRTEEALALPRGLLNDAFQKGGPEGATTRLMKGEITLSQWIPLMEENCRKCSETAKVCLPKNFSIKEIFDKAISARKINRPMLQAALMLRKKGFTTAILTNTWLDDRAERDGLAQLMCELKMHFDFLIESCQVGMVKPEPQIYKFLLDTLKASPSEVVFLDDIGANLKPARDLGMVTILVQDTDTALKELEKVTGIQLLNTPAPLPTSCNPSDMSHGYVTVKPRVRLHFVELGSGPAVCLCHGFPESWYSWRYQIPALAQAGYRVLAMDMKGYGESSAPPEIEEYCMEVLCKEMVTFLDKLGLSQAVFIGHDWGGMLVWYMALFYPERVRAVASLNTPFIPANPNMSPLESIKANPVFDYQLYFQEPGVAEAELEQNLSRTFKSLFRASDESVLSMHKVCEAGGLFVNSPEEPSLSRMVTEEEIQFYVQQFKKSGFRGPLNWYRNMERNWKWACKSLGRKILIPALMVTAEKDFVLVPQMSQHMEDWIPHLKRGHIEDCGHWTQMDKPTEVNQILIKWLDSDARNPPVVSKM", "test": "Recombinant soluble epoxide hydrolase activity assay (fluorogenic substrate PHOME)", "experimental": "Compounds were dissolved in DMSO (final DMSO concentration=5% (v/v)). Activity was calculated according to:\n% Initial Activity=[(FI15−FI0)/(FT15−FT0)]×100%\nwhere FI is the background corrected fluorescence signal obtained in the presence of an inhibitor and FT is the background corrected fluorescence signal obtained for the total activity at times 0 and 15 minutes. IC50 values were calculated using GraphPad Prism v."}, "[3]": {"target": "T2, sEH activity in L-CNV eye tissue homogenates (Mus musculus, UniProt P34914)", "T2 construct": "from tissue; host or cells: mouse eye homogenate (C57BL/6J, L-CNV), 100,000 x g supernatant", "T2 sequence (P34914 1-554)": "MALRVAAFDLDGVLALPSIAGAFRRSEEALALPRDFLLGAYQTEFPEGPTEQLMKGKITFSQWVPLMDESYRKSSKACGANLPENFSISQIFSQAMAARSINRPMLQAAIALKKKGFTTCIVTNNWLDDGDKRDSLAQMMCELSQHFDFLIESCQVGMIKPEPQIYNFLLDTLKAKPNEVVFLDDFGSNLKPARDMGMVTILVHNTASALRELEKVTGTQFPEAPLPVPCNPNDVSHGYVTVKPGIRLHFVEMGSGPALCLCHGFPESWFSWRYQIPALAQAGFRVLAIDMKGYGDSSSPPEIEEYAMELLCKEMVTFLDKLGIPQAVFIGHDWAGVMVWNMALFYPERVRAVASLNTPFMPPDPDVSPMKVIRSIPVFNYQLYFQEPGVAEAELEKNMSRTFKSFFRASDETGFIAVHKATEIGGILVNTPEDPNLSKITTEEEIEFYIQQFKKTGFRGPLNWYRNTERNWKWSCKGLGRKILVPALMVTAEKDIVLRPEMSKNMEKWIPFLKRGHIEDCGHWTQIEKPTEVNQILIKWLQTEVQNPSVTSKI", "test": "Tissue-based sEH activity assay using trans-stilbene oxide", "assay_type": "biochemical", "conditions": "20 μM, 3 days post-laser-treatment, trans-stilbene oxide substrate", "protocol": "The sEH activity in tissue homogenates was assayed using trans-stilbene oxide (t-SO) as substrate. The assay is based on the hydrolysis of t-SO that is tracked as a decrease in the absorbance at 230 nm. L-CNV was induced as described above. After 3 days, enucleated eyes from both untreated and L-CNV mice were homogenized in 0.2 M sodium phosphate buffer, pH 7.4. To remove microsomal epoxide hydrolase and lenses, tissue extracts were centrifuged at 100,000×g for 30 minutes at 4° C. After protein estimation, 100 μL of tissue homogenates (100 μg/mL) and 98 μL of SH-11037 or 7 dissolved in DMSO/buffer (final 1% (v/v) DMSO) were added to a UV-transparent 96-well plate. After 5 minutes' incubation at room temperature, 2 μL of t-SO in ethanol (100 μM final concentration) was added to assay wells to initiate the reaction. The absorbance was read at 230 nm for 20 minutes. sEH activity was determined as follows:\nsEH Activity=[(A0−A20)−(B0−B20)]/mg of protein in a reaction\nWhere A0 and A20 are absorbance of test wells read at 230 nm at time 0 and 20 minutes respectively, and B0 and B20 are absorbance of background wells read at 230 nm at time 0 and 20 minutes."}, "human sEH": {"target": "T3, human sEH (Homo sapiens, UniProt P34913)", "T3 construct": "purchased Cayman Chemical", "T3 sequence (P34913 1-555)": "T1 sequence (P34913 1-555)", "test": "sEH enzyme kinetics (PHOME hydrolysis, Michaelis-Menten/Dixon analysis)", "assay_type": "biochemical", "conditions": "for type of inhibition of sEH: Lineweaver-Burk and Dixon plots; for Ki: human sEH, PHOME", "protocol": "Various concentrations of compound dissolved in DMSO (final DMSO concentration=5% (v/v)) and human sEH (60 ng/mL final concentration; Cayman Chemical) in 25 mM bis-Tris-HCl buffer containing 0.1% (w/v) BSA were mixed in a 96 well plate. PHOME at indicated concentrations was added to the wells to initiate the reaction and fluorescence was read with an excitation wavelength of 330 nm and emission wavelength of 465 nm. The standard curve plotted from dilutions of the product, 6-methoxy-2-naphthaldehyde, was used to convert fluorescence reading (RFU/min) to sEH activity (nmol product formed/min). The reaction rate was obtained from the slope of the line from time=5 to 15 minutes for each substrate concentration, and analyzed using GraphPad Prism 7 and SigmaPlot 13.0 to determine Michaelis-Menten kinetic parameters."}, "[4]": {"tested_on": "choroidal neovascularization", "test": "Laser-induced choroidal neovascularization (L-CNV) mouse model, CNV lesion volume", "assay_type": "in vivo", "conditions": "single intravitreal injection, 14 days post-laser, vs vehicle"}, "[5]": {"tested_on": "mouse choroidal sprouting", "test": "Choroidal sprouting assay (ex vivo)", "assay_type": "cell-based", "conditions": "0.1, 1, 10 μM, 48 hours, vs vehicle", "protocol": "Benzisoxazole sEH inhibitor 7 was synthesized according to the method as described in Shen et al., Bioorg. […] Sprouting of endothelial cells from choroidal layers was tested as described in Sulaiman et al., Sci. Rep. […] The final concentration of DMSO in each well was 0.2% (v/v). Images were taken using an EVOS-fl digital microscope (AMG, Mill Creek, WA, USA) and data were analyzed as the sprouting distance in four different directions using ImageJ software v.1.48v (http://imagej.nih.gov/ij/)."}},
  "data": [
    {"smiles": "COc1ccc(CC2COc3cc(OC)c(OC)c(OC)c3C2=O)cc1OC(=O)[C@H](Cc1ccccc1)NC(=O)OC(C)(C)C", "note": "(stereo partly drawn) [SH-11037, (2S)-2-methoxy-5-((5,6,7-trimethoxy-4-oxochroman-3-yl)methyl)phenyl 2-((tert-butoxycarbonyl)amino)-3-phenylpropanoate]", "values": [
      {"measurement": "ratio of 19,20-EDP to 19,20-DHDP in retina/choroid", "setting": "sEH", "result": "partially normalized"},
      {"measurement": "combination with anti-VEGF antibody in L-CNV", "setting": "[1]; WO 2017/091473", "result": "synergize"},
      {"measurement": "effective doses in L-CNV, intravitreal", "setting": "[1]; previously shown (Sulaiman et al. 2016; WO 2017/091473)", "result": "> 1", "unit": "µM"},
      {"measurement": "IC50", "setting": "[2]", "result": 150, "unit": "nM"},
      {"measurement": "sEH activity in L-CNV eye lysates", "setting": "[3]", "result": "normalized"},
      {"measurement": "type of inhibition of sEH", "setting": "human sEH", "result": "mixed-type inhibitor"},
      {"measurement": "Ki", "setting": "human sEH", "result": "1730 ± 450", "unit": "nM"}
    ]},
    {"smiles": "FC(F)(F)c1ccc(Nc2noc3c(C(F)(F)F)cccc23)cc1", "note": "[compound 7, 7-(trifluoromethyl)-N-(4-(trifluoromethyl)phenyl) benzo[d]isoxazol-3-amine, reference compound]", "values": [
      {"measurement": "IC50", "setting": "[2]", "result": 9.5, "unit": "nM"},
      {"measurement": "CNV lesion vascular volume", "setting": "[4]", "result": "dose-dependently suppressed"},
      {"measurement": "sEH activity in L-CNV eye lysates", "setting": "[3]", "result": "normalized"},
      {"measurement": "ability of choroidal tissues to form sprouts", "setting": "[5]", "result": "suppressed"},
      {"measurement": "type of inhibition of sEH", "setting": "human sEH", "result": "mixed-type inhibitor"},
      {"measurement": "Ki", "setting": "human sEH; Dixon plot, n=3", "result": 19.6, "unit": "nM"}
    ]}
  ]
}
